The record followed here is patent publication US20060239999A1, “Preventive and/or therapeutic drugs for asthma” (priority 2002, published 2006).

In assay [1] the test system is BALB/c male mice. Kind of assay: Suppressive effect on antigen-induced eosinophil infiltration in airway (bronchoalveolar lavage fluid). The format is in vivo. To be noted: for Eosinophil numbers in bronchoalveolar lavage fluid: 24 hours after final antigen inhalation, compound 1 100 mg/kg orally 1 hour before and 6 hours after each antigen, prednisolone 30 mg/kg orally once before each antigen; for eosinophil numbers decreased as compared with the positive control group: compound 1 100 mg/kg orally, prednisolone 30 mg/kg orally. Here is the method: (§1) Suspention prepared by mixing of 50 μg of ovalbumin and 1 mg of aluminum hydroxide in a physiological saline solution (Otsuka Physiological Saline; manufactured by Otsuka. Pharmaceutical) was intraperitoneally administered to BALB/c male mice (7 weeks age) for two times with an interval of one week to sensitize and, after 14, 18 and 22 days from the final sensitization, 1% solution of ovalbumin in a physiological saline solution or a physiological saline solution (a negative control group) was inhaled for 30 minutes respectively to induce an antigen-antibody reaction. In the case of measurement of bronchoconstriction, compound 1 was suspended in a 0.5% aqueous solution of methylcellulose (solvent) and, 1 hour before inhalation of antigen after 14 days from the final sensitization 100 mg/kg of the suspention was orally administered or, 5 minutes before that, 30 mg/kg was intraperitoneally administered. In the case of measurement of airway hyperreactivity or eosinophil infiltration in airway, compound 1 was suspended as mentioned above and, after 14, 18 and 22 days from the final sensitization, 100 mg/kg of the suspention was orally administered 1 hour before and 6 hours after inhalation of each antigen. As a reference drug, prednisolone which is a steroid used for the treatment of asthma was orally administered at a dose of 30 mg/kg (as a solution being suspended in 0.5% aqueous solution of methylcellulose) once, 1 hour before inhalation of each antigen after 14, 18 and 22 days from the final sensitization. In a positive control group, the solvent was administered instead of a suspension of a test compound. […]
(§2) With regard to the bronchoconstriction, airway resistance (penh) was evaluated by a measuring apparatus for respiration function of mice (BioSystems XA; Buxco Electronics, Inc., Sharon, Conn., U.S.A.) for 30 minutes from immediately after inhalation of antigen after 14 days from the final sensitization and evaluation was conducted by calculating the area under curve during the 30 minutes (AUC0-30 min). Further, after 24 hours from final inhalation of antigen, airway hyperreactivity and eosinophil infiltration in bronchoalveolar lavage fluid were evaluated.
(§3) With regard to eosinophil filtration, total cell numbers in the bronchoalveolar lavage fluid were measured by an automatic measuring apparatus for blood cell count (Celltac α MEK-6158; Nippon Koden, Tokyo), then the smears were prepared by Cytospin 3 (Shandon, Inc., Pittsburgh, Pa., U.S.A.) and evaluation was conducted by a morphological classification under a microscope. Eosinophil numbers were calculated by multiplying the total cell numbers by percentage of eosinophil cells. […]

Assay [2] concerns BALB/c male mice. Kind of assay: Suppressive effect on antigen-induced bronchoconstriction (airway resistance penh). The format is in vivo. To be noted: for AUC0-30min of the bronchoconstriction: ovalbumin-sensitized mice, mean value±standard error. The protocol: Suspention prepared by mixing of 50 μg of ovalbumin and 1 mg of aluminum hydroxide in a physiological saline solution (Otsuka Physiological Saline; manufactured by Otsuka. Pharmaceutical) was intraperitoneally administered to BALB/c male mice (7 weeks age) for two times with an interval of one week to sensitize and, after 14, 18 and 22 days from the final sensitization, 1% solution of ovalbumin in a physiological saline solution or a physiological saline solution (a negative control group) was inhaled for 30 minutes respectively to induce an antigen-antibody reaction. In the case of measurement of bronchoconstriction, compound 1 was suspended in a 0.5% aqueous solution of methylcellulose (solvent) and, 1 hour before inhalation of antigen after 14 days from the final sensitization 100 mg/kg of the suspention was orally administered or, 5 minutes before that, 30 mg/kg was intraperitoneally administered. In the case of measurement of airway hyperreactivity or eosinophil infiltration in airway, compound 1 was suspended as mentioned above and, after 14, 18 and 22 days from the final sensitization, 100 mg/kg of the suspention was orally administered 1 hour before and 6 hours after inhalation of each antigen. As a reference drug, prednisolone which is a steroid used for the treatment of asthma was orally administered at a dose of 30 mg/kg (as a solution being suspended in 0.5% aqueous solution of methylcellulose) once, 1 hour before inhalation of each antigen after 14, 18 and 22 days from the final sensitization. In a positive control group, the solvent was administered instead of a suspension of a test compound. (In the case of measurement of bronchoconstriction, the solvent was administered once, 1 hour before inhalation of antigen after 14 days from the final sensitization as for oral administration, or the solvent was administered once 30 minutes before inhalation of antigen after 14 days from the final sensitization as for intraperitoneal administration. In the case of measurement of airway hyperreactivity and eosinophil infiltration in airway, the solvent was administered 1 hour before and 6 hours after inhalation of each antigen after 14, 18 and 22 days from the final sensitization.)
as §2

Assay [3] relates to BALB/c male mice. Kind of assay: Suppressive effect on antigen-induced airway hyperreactivity (methacholine inhalation). The assay is classed as in vivo. To be noted: for airway hyperreactivity suppressed as compared with the positive control group: compound 1 100 mg/kg orally, prednisolone 30 mg/kg orally; for AUC of airway hyperreactivity: methacholine 1.5 to 25 mg/ml, compound 1 100 mg/kg orally 1 hour before and 6 hours after each antigen, prednisolone 30 mg/kg orally once before each antigen, mean value±standard error. The protocol:
as §1, §2, §3

The target in the next assay is T1, GPR4 (Homo sapiens, UniProt P46093).
T1 construct: expressed in transfected cells; host or cells: KJMGER8 (Namalwa KJM-1 human B-cell line stably expressing Gal4-ER), co-transfected with pAGal9-GPR4 and the CRE-luciferase reporter pACREpluc
Kind of assay: Antagonistic action on GPR4 (luciferase reporter in GPR4 assay cells induced by 17β-estradiol). The assay is classed as cell-based. To be noted: 10 nmol/L 17β-estradiol, 6 hours, luciferase luminescence. Here is the method: Cells for GPR4 assay prepared in Referential Example 61 (said assay cells express GPR4 by stimulation with 17β-estradiol) were seeded on white plates at the rate of 10^5 cells/well, and a solution where 17β-estradiol (manufactured by Sigma) was diluted with a medium so as to make 10 nmol/L in the reaction solution and test compounds were added to the plate and the mixture was incubated at 37° C. for 6 hours in a 5% CO2 incubator. After that, a Steady Glo Luciferase Assay System (manufactured by Promega) solution was added to stop the reaction and the amount of luminescence during one second was measured using a Top Count (Packard, Meriden, Conn., U.S.
Activity of the each of test compounds (antagonistic action) was expressed by an inhibition rate calculated on the basis of counts per second in the presence or absence of 17β-estradiol as shown by the following formula. IC50 value was calculated from the inhibition rate by a linear approximate analysis of the Logit-Log conversion method.
In the formula, A, B and C each have the following meaning, respectively.
A: counts per second when 17β-estradiol and the test compound were added
B: counts per second when neither 17β-estradiol nor the test compound was added
C: counts per second when only 17β-estradiol was added
Inhibition Rate (%) [1−{(A−B)/(C−B)}]×100
1 μg of mRNA derived from human lung (manufactured by Clontech) was used and a single-stranded cDNA was synthesized using a SUPERSCRIPT First-Stranded Synthesis System for RT-PCR (manufactured by Gibco). GPR4 cDNA was prepared by PCR using a solution (5 μl) where said single-stranded cDNA was diluted with water to an extent of 250-fold as a template and synthetic DNA having nucleotide sequences represented by SEQ ID NO: 7 and NO: 8 as a GPR4 gene-specific primer. Sequence of the GPR4 gene-specific primer was designed on the basis of sequence information of GPR4 gene (GenBank Accession No. U21051). With regard to an enzyme, PfuTurbo DNA Polymerase (manufactured by Stratagene) was used. With regard to a buffer for conducting the PCR, a buffer of 10-fold concentration attached to the enzyme was used. The PCR was conducted by treating at 95° C. for 5 minutes and conducting 30 cycles of reaction each comprising at 94° C. for 1 minute, at 60° C. for 1 minute and at 72° C. for 1 minute using a thermal cycler DNA engine (manufactured by MJ Research).
2 μg of plasmid pAGal9-GPR4 with inducible expression of GPR4 and 2 μg of reporter plasmid pACREpluc were co-transferred into 6×10^6 cell of KJMGER8 by the above-mentioned electroporation. The transformants were suspended in 8 ml of an RPMI 1640-ITPSG medium and cultured in a CO2 incubator at 37° C. for 24 hours. After the cultivation, blasticidin S (2.0 μg/ml), hygromycin B (300 μg/ml) and geneticin (500 μg/ml) were added and cultivation was carried-out for 14 days more, and stable transformants (called GPR4 assay cells) were obtained. The transformants were subcultured in an RPMI 1640-ITPSG medium containing blasticidin S (2.0 μg/ml), hygromycin B (300 μg/ml) and geneticin (500 μg/ml).

T1 sequence (P46093 whole entry, the tested form may be a part): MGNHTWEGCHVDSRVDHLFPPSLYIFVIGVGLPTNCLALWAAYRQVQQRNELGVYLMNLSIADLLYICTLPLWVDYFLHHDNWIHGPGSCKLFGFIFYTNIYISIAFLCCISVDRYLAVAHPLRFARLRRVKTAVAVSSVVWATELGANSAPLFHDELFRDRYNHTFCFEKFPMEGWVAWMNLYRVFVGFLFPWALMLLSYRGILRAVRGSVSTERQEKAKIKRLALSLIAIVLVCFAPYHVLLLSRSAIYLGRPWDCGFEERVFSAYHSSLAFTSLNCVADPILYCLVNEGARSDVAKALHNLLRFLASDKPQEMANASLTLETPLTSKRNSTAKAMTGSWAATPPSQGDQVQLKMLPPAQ

On to `CCc1nc2c(C)cc(C)nc2n1Cc1ccc2c(c1)CCc1cc(CN3CCN(C)CC3)ccc1N2` [Compound 1, 2-(2-Ethyl-5,7-dimethyl-3H-imidazo[4,5-b]pyridin-3-ylmethyl)-8-(4-methylpiperazin-1-ylmethyl)-10,11-dihydro-5H-dibenz[b,f]azepine], for which, in the assay with BALB/c male mice [1], the “Eosinophil numbers in bronchoalveolar lavage fluid” value is 0.92±0.26 ×10^5 per mouse and the “eosinophil numbers decreased as compared with the positive control group” value is 67%. Further, in the assay on BALB/c male mice [2] (30 mg/kg intraperitoneally), the “bronchoconstriction suppressed as compared with the positive control group” value was 105%. In the assay on BALB/c male mice [2] (100 mg/kg orally), the “bronchoconstriction suppressed as compared with the positive control group” value worked out at 44%. The “AUC0-30min of the bronchoconstriction” value with BALB/c male mice [2] (30 mg/kg intraperitoneally before antigen inhalation) is 14.60±0.46. Moreover, the “AUC0-30min of the bronchoconstriction” value with BALB/c male mice [2] (100 mg/kg orally 1 hour before antigen inhalation) is listed as 16.85±0.84. For the same compound, in the assay on BALB/c male mice [3], the “airway hyperreactivity suppressed as compared with the positive control group” value was found to be 60% and the “AUC of airway hyperreactivity” value is 243.23±48.7. In addition, on GPR4, the IC50 came out at 4 nM.

The compound `CCc1nc2c(C)cc(C)nc2n1Cc1ccc2c(c1)CCc1cc(CN3CC=CCC3)ccc1N2` [Compound 2, 2-(2-Ethyl-5,7-dimethyl-3H-imidazo[4,5-b]pyridin-3-ylmethyl)-8-(1,2,5,6-tetrahydropyridin-1-ylmethyl)-10,11-dihydro-5H-dibenz[b,f]azepine] came in with an IC50 on GPR4 of 3.2 nM.

In turn, `CCc1nc2c(C)cc(C)nc2n1Cc1ccc2c(c1)CCc1cc(CN3CCCC3)ccc1N2` [Compound 3, 2-(2-Ethyl-5,7-dimethyl-3H-imidazo[4,5-b]pyridin-3-ylmethyl)-8-(pyrrolidin-1-ylmethyl)-10,11-dihydro-5H-dibenz[b,f]azepine] showed an IC50 at GPR4 of 2.3 nM.

The compound `CCc1nc2c(C)cc(C)nc2n1Cc1ccc2c(c1)CCc1cc(CN3CCOCC3)ccc1N2` [Compound 4, 2-(2-Ethyl-5,7-dimethyl-3H-imidazo[4,5-b]pyridin-3-ylmethyl)-8-morpholinomethyl-10,11-dihydro-5H-dibenz[b,f]a zepine] had an IC50 against GPR4 of 5.8 nM.

On to `CCc1nc2c(C)cc(C)nc2n1Cc1ccc2c(c1)CCc1cc(CN3CC(C)CC(C)C3)ccc1N2` (centres unmarked) [Compound 5], for which the IC50 on GPR4 was 14 nM.

`C[C@]12C=CC(=O)C=C1CC[C@@H]1[C@@H]2[C@@H](O)C[C@@]2(C)[C@H]1CC[C@]2(O)C(=O)CO` [prednisolone, reference compound]: in the assay on BALB/c male mice [1], the “Eosinophil numbers in bronchoalveolar lavage fluid” value was 0.76±0.25 ×10^5 per mouse and the “eosinophil numbers decreased as compared with the positive control group” value is 73%. Besides, in the assay on BALB/c male mice [3], the “airway hyperreactivity suppressed as compared with the positive control group” value came to 43% and the “AUC of airway hyperreactivity” value is given as 269.12±46.7.
